Reference: US20250057872A1, “INNATE IMMUNOMODULATORY EFFECT OF GINSENG BERRY POLYSACCHARIDES IN IMMUNOCOMPROMISED CONDITIONS” (GANGNEUNG-WONJU NATIONAL UNIVERSITY INDUSTRY ACADEMY …, priority 2022, published 2025)

Key:
[1] = test system: immune-related genes (IL-1β, IL-2, IL-4, IL-6, TNF-α, IFN-γ, TLR-4, COX-2); design: species or system BALB/c mice; conditions: mouse, in vivo
Method: (§1) In the present invention, 40 mice were randomly divided into 8 groups (n=5 per group) and variously treated according to Table 1.
(§2) Cyclophosphamide (CY) was used to induce immunosuppressive models by intraperitoneal (IP) injection at a dose of 80 mg/kg body weight (BW). […] In addition, ginseng was used with a commercially available product, and mice were sacrificed 24 hours after the last treatment of samples in Table 1.

[2] = test system: NK cells; assay: NK cell-mediated cytotoxicity assay, splenocytes co-cultured with YAC-1 cells; type: in vivo, BALB/c mice; conditions: CY-treated group (80 mg/kg IP); effector:target 50:1
Method: as §1, §2

[3] = test system: splenic lymphocytes; assay: Splenic lymphocyte proliferation (EZ-Cytox) of splenocytes from treated mice, stimulated with Con A or LPS; type: in vivo, BALB/c mice; conditions: CY-treated group (80 mg/kg IP) compared to the normal group
Method: as §1, §2

[4] = test system: mice immunosuppressed by administering cyclophosphamide (CY); assay: Spleen size and spleen index in cyclophosphamide (CY)-immunosuppressed mice; type: in vivo, BALB/c mice; conditions: CY (80 mg/kg IP) mice, CY group compared to normal group, LEV 40 mg/kg, red ginseng 100 mg/kg, GBPs 50, 100, 250, 500 mg/kg BW orally; for spleen size: FIG. 1; for spleen index: FIG. 2
Method: Six-week-old male BALB/c mice (21-23 g) were purchased from the Central Lab, Animal Inc. (Korea) and housed under standard conditions with temperature maintained at 22±2° C. and a 12-h/12-h dark/light cycle.
as §1, §2
The spleen was dissected and weighed. The spleen index was calculated according to Formula below:
Spleen index (mg/g)=spleen weight/body weight of mouse [Formula]

Row | SMILES | mRNA expression levels of immune-related genes IL-2, IL-4, IL-6, TNF-α, IFN-γ, TLR-4 and COX-2 [1] | activity of NK cells [2] | Con A-stimulated cell proliferation, reduction ([3]; Con A 5 μg/ml) | LPS-stimulated cell proliferation, reduction ([3]; LPS 10 μg/ml) | spleen size [4] | spleen index [4]
1 | O=P1(N(CCCl)CCCl)NCCCO1 (centres unmarked) [CY, Cyclophosphamide] | lower than those of the normal group | 42.9% | 48.1% | 57.1% | decreases in both spleen size and spleen indices | decreases in both spleen size and spleen indices
2 | c1ccc([C@H]2CN3CCSC3=N2)cc1 [LEV, Levamisole] |  |  |  |  | increased spleen size and indices | increased spleen size and indices
